Among the data in patent US20250230165A1, “HETEROCYCLIC COMPOUNDS FOR USE IN THE TREATMENT OF CANCER” (ARTIOS PHARMA LIMITED, priority 2021, published 2025) are Kinact/Kl values, retold here.

The target of this assay is T1, Human Polθ polymerase domain (aa1820-2590) (Homo sapiens, UniProt O75417).
T1 construct: Human Polθ polymerase domain (aa1820-2590) was expressed in E. coli; made in house; host or cells: E. coli
T1 sequence (O75417 1820-2590): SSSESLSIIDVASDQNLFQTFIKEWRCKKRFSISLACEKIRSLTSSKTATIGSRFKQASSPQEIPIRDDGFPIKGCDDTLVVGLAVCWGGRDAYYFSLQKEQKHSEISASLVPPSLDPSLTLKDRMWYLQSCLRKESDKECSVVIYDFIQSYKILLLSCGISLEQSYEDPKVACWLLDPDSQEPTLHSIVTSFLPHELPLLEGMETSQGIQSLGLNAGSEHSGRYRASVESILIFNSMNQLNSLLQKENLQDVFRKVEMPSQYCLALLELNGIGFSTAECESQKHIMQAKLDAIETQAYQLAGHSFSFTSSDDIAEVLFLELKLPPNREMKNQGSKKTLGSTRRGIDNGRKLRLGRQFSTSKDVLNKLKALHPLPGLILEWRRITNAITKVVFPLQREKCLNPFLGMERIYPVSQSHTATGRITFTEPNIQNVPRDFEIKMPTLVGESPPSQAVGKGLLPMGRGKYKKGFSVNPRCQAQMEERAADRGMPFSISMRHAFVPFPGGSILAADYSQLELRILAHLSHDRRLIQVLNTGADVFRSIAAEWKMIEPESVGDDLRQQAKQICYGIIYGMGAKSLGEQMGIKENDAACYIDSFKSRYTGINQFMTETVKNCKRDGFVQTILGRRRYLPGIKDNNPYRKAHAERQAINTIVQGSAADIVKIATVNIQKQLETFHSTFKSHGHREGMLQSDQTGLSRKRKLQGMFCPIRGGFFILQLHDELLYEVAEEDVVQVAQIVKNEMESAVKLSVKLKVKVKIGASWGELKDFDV
The assay can be described thus: Polθ Polymerase Domain Kinact/KI Assay (PicoGreen). It is filed as biochemical. The conditions noted are these: 0.8 nM Polθ, 100 nM DNA substrate, kobs vs [I] fit for 2-step covalent inhibitor. The method in brief: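 PicoGreen fluorescence read-out of primer extension; progress curves per inhibitor concentration fitted for kobs, then kobs vs [I] fitted to a two-step covalent model to give Kinact and KI. Conditions: 0.8 nM enzyme, 100 nM DNA substrate, […].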

On to `C=CC(=O)N1Cc2cc(CN3C[C@H]4CC(=O)N(c5cc(C(F)(F)F)cc(C)n5)[C@@H]4C(=O)N(C)c4cccc(C)c43)cnc2[C@H]1CC#N` (racemic) [Example 321b, 2-((R/S)-6-acryloyl-3-(((3aR,11aS)-6,10-dimethyl-1-(6-meth-yl-4-(trifluorometh-yl)pyridin-2-yl)-2,11-dioxo-1,2,3,3a, 4,10,11,11a-octa-hydro-5H-benzo[b]pyrrolo[2,3-f][1,4]diazocin-5-yl)meth-yl)-6,7-dihydro-5H-pyrrolo[3,4-b]pyr-idin-7-yl)acetonitrile], for which the Kinact/Kl is 0.69 µM⁻¹ s⁻¹.

Compound `C=C(CN(C)C)C(=O)Nc1ccc(CN2C[C@H]3CC(=O)N(c4cc(C(F)(F)F)cc(C)n4)[C@@H]3C(=O)N(C)c3cccc(C)c32)cc1OC` [Example 210, N-(4-(((3aR,11aS)-6,10-dimethyl-1-(6-methyl-4-(trifluoromethyl)pyridin-2-yl)-2,11-dioxo-1,2,3,3a,4,10,11,11a-octahydro-5H-benzo[b]pyrrolo[2,3-f][1,4]diazocin-5-yl)methyl)-2-methoxyphenyl)-2-((dimethylamino)methyl)acrylamide] had a Kinact/Kl of 0.63 µM⁻¹ s⁻¹. The result for `C=CC(=O)N1CC(c2nc(CN3C[C@H]4CC(=O)N(c5cc(C(F)(F)F)cc(C)n5)[C@@H]4C(=O)N(C)c4cccc(F)c43)c[nH]2)C1` [Example 122, (3aR,11aS)-5-((2-(1-acryloylazetidin-3-yl)-1H-imidazol-4-yl)methyl)-6-fluoro-10-methyl-1-(6-methyl-4-(trifluoromethyl)pyridin-2-yl)-1,3a,4,5,10,11a-hexahydro-2H-benzo[b]pyrrolo[2,3-f][1,4]diazocine-2,11(3H)-dione] reads 0.61 µM⁻¹ s⁻¹; that for `C=CC(=O)N1CC(N2CCN(CCN3C[C@H]4CC(=O)N(c5cc(C(F)(F)F)cc(C)n5)[C@@H]4C(=O)N(C)c4cccc(F)c43)CC2)C1` [Example 1, (3aR,11aS)-5-(2-(4-(1-Acryloylazetidin-3-yl)piperazin-1-yl)ethyl)-6-fluoro-10-methyl-1-(6-methyl-4-(trifluoromethyl)pyridin-2-yl)-1,3a,4,5,10,11a-hexahydro-2H-benzo[b]pyrrolo[2,3-f][1,4]diazocine-2,11(3H)-dione], 0.41 µM⁻¹ s⁻¹. The result for `C=CC(=O)N1CC2(CN(CCN3C[C@H]4CC(=O)N(c5cc(C(F)(F)F)cc(C)n5)[C@@H]4C(=O)N(C)c4cccc(C)c43)CC2C#N)C1` (single isomer, unassigned) [Example 118a] reads 3.00 µM⁻¹ s⁻¹; that for `Cc1cc(C(F)(F)F)cc(N2C(=O)C[C@@H]3CN(Cc4ccc5c(c4)CN(C(=O)/C(Cl)=C/CN(C)C)C5)c4c(C)cccc4N(C)C(=O)[C@H]32)n1` [Example 255, (3aR,11aS)-5-((2-((Z)-2-chloro-4-(dimethylamino)but-2-enoyl)isoindolin-5-yl)methyl)-6,10-dimethyl-1-(6-methyl-4-(trifluoromethyl)pyridin-2-yl)-1,3a,4,5,10,11a-hexahydro-2H-benzo[b]pyrrolo[2,3-f][1,4]diazocine-2,11(3H)-dione], 0.98 µM⁻¹ s⁻¹; that for `C=CC(=O)N1CCN(CCN2C[C@H]3CC(=O)N(c4cc(C(F)(F)F)cc(C)n4)[C@@H]3C(=O)N(C)c3cccc(Cl)c32)CC1CC#N` (mixture of isomers) [Example 258a, 2-((R/S)-1-acryloyl-4-(2-((3aR,11aS)-6-chloro-10-methyl-1-(6-methyl-4-(trifluoromethyl)pyridin-2-yl)-2,11-dioxo-1,2,3,3a,4,10,11,11a-octahydro-5H-benzo[b]pyrrolo[2,3-f][1,4]diazocin-5-yl)ethyl)piperazin-2-yl)acetonitrile], 1.65 µM⁻¹ s⁻¹. The result for `C=CC(=O)N1CC(O[C@H]2CN(CCN3C[C@H]4CC(=O)N(c5cc(C(F)(F)F)cc(C)n5)[C@@H]4C(=O)N(C)c4cccc(F)c43)C[C@@H]2O)C1` (relative stereo) [Example 11, (3aR,11aS)-5-(2-((rel-trans)-3-((1-acryloylazetidin-3-yl)oxy)-4-hydroxypyrrolidin-1-yl)ethyl)-6-fluoro-10-methyl-1-(6-methyl-4-(trifluoromethyl)pyridin-2-yl)-1,3a,4,5,10,11a-hexahydro-2H-benzo[b]pyrrolo[2,3-f][1,4]diazocine-2,11(3H)-dione] reads 0.40 µM⁻¹ s⁻¹; that for `Cc1cc(C(F)(F)F)cc(N2C(=O)C[C@@H]3CN(Cc4ccc([C@H]5CCCN5C(=O)/C=C/CN(C)C)cc4)c4c(F)cccc4N(C)C(=O)[C@H]32)n1` (racemic) [Example 170a, (3aR,11aS)-5-(4-((R/S)-1-((E)-4-(dimethylamino)-but-2-enoyl)pyr-rolidin-2-yl)benz-yl)-6-fluoro-10-methyl-1-(6-methyl-4-(tri-fluoromethyl)-pyridin-2-yl)-1,3a,4,5,10,11a-hexahydro-2H-benzo[b]pyrrolo [2,3-f][1,4]diazo-cine-2,11(3H)-dione], 0.88 µM⁻¹ s⁻¹.

`C=CC(=O)N1CCc2cc(CN3C[C@H]4CC(=O)N(c5cc(C(F)(F)F)cc(C)n5)[C@@H]4C(=O)N(C)c4cccc(F)c43)ccc2C1` [Example 131, (3aR,11aS)-5-((2-acryloyl-1,2,3,4-tetrahydoisoquinolin-6-yl)methyl)-6-fluoro-10-methyl-1-(6-methyl-4-(trifluoromethyl)pyridin-2-yl)-1,3a,4,5,10,11a-hexahydro-2H-benzo[b]pyrrolo[2,3-f][1,4]diazocine-2,11(3H)-dione] had a Kinact/Kl of 0.53 µM⁻¹ s⁻¹. The result for `Cc1cc(C(F)(F)F)cc(N2C(=O)C[C@@H]3CN(CC(F)CCCNC(=O)/C=C/CN(C)C)c4c(Cl)cccc4N(C)C(=O)[C@H]32)n1` (stereo partly drawn) [Example 253, (E)-N-(5-((3aR,11aS)-6-chloro-10-methyl-1-(6-methyl-4-(trifluoromethyl)pyridin-2-yl)-2,11-dioxo-1,2,3,3a,4,10,11,11a-octahydro-5H-benzo[b]pyrrolo[2,3-f][1,4]diazocin-5-yl)-4-fluoropentyl)-4-(dimethylamino)but-2-enamide] reads 1.42 µM⁻¹ s⁻¹; that for `C=CC(=O)N1CC(n2cnc(CN3C[C@H]4CC(=O)N(c5cc(C(F)(F)F)cc(C)n5)[C@@H]4C(=O)N(C)c4cccc(F)c43)c2)C1` [Example 38, (3aR,11aS)-5-((1-(1-acryloylazetidin-3-yl)-1H-imidazol-4-yl)methyl)-6-fluoro-10-methyl-1-(6-methyl-4-(trifluoromethyl)pyridin-2-yl)-1,3a,4,5,10,11a-hexahydro-2H-benzo[b]pyrrolo[2,3-f][1,4]diazocine-2,11(3H)-dione], 2.39 µM⁻¹ s⁻¹; that for `C=CC(=O)N1CC(N2CC[C@@H](CN3C[C@H]4CC(=O)N(c5cc(C(F)(F)F)cc(C)n5)[C@@H]4C(=O)N(C)c4cccc(Cl)c43)[C@@H](C#N)C2)C1` (single isomer, unassigned) [Example 227b], 1.07 µM⁻¹ s⁻¹. For `C=CC(=O)N1Cc2cc(CN3C[C@H]4CC(=O)N(c5cc(C(F)(F)F)cc(C)n5)[C@@H]4C(=O)N(C)c4cccc(Cl)c43)ccc2C1CC#N` (single isomer, unassigned) [Example 287b], the Kinact/Kl is 1.19 µM⁻¹ s⁻¹.

`C=CC(=O)N1CCN(CCN2C[C@H]3CC(=O)N(c4cc(C(F)(F)F)cc(C)n4)[C@@H]3C(=O)N(C)c3cccc(C)c32)[C@@H](C)C1` [Example 260, (3aR,11aS)-5-(2-((S)-4-acryloyl-2-methylpiperazin-1-yl)ethyl)-6,10-dimethyl-1-(6-methyl-4-(trifluoromethyl)pyridin-2-yl)-1,3a,4,5,10,11a-hexahydro-2H-benzo[b]pyrrolo[2,3-f][1,4]diazocine-2,11(3H)-dione] had a Kinact/Kl of 1.54 µM⁻¹ s⁻¹. The result for `C=CC(=O)N1CC[C@@H]1c1nnc(CN2C[C@H]3CC(=O)N(c4cc(C(F)(F)F)cc(C)n4)[C@@H]3C(=O)N(C)c3cccc(C)c32)o1` [Example 274, (3aR,11aS)-5-((5-((R)-1-acryloylazetidin-2-yl)-1,3,4-oxadiazol-2-yl)methyl)-6,10-dimethyl-1-(6-methyl-4-(trifluoromethyl)pyridin-2-yl)-1,3a,4,5,10,11a-hexahydro-2H-benzo[b]pyrrolo[2,3-f][1,4]diazocine-2,11(3H)-dione] reads 0.47 µM⁻¹ s⁻¹; that for `Cc1cc(C(F)(F)F)cc(N2C(=O)C[C@@H]3CN(Cc4ccc(C5CN(C(=O)/C=C/CN(C)C)C5)cc4)c4c(F)cccc4N(C)C(=O)[C@H]32)n1` [Example 146, (3aR,11aS)-5-(4-(1-((E)-4-(dimethylamino)but-2-enoyl)azetidin-3-yl)benzyl)-6-fluoro-10-methyl-1-(6-methyl-4-(trifluoromethyl)pyridin-2-yl)-1,3a,4,5,10,11a-hexahydro-2H-benzo[b]pyrrolo[2,3-f][1,4]diazocine-2,11(3H)-dione], 1.68 µM⁻¹ s⁻¹.
